Entries after “also recorded” stand apart in the source; their conditions may differ. Peptide text beside a SMILES is read from it. * marks the point of attachment. Cbz = O=C(OCc1ccccc1)*; CH2F = FC*
Experiments:
[1] = system: mouse skin (NOD1/NOD2 response); assay: neutrophil recruitment to pinnae after intradermal injection; format: in vivo; details: for neutrophil recruitment response in Slc46a2-deficient mice compared to WT: Tri-DAP 25 μM, C12-iE-DAP 20 μM
Description: […] After 3 h, both ears were individually harvested, and stored in ice cold PBS on ice until further processing for flow cytometry staining.
Pinnae were cut into small pieces and incubated for 30 min at 37° C. in a solution of 1 mg/ml collagenase (Sigma) in DMEM media containing 10% FBS. Ice-cold FACS buffer (2% FBS in PBS) was added to skin samples to stop the reaction. Then samples were placed on 70 μm cell strainers and ground using a cell strainer pestle to create a single cell suspension. Cells were spun at 180 g for 5 min at 4° C. and resuspended in FACS buffer.
(§1) 1×10^6 cells were stained with F4/80-PE/Cy7 (1:200), CD45-alexaflour700 (1:200) and Gr1-PE (1:200) for 30 min on ice in the dark. Samples were washed three times with FACS buffer and analyzed with a Cytek Aurora cytometer. Results were analyzed with FlowJo software (Tree Star, USA).

[2] = system: mouse peritoneum (NOD1/NOD2 response); assay: neutrophil recruitment to the peritoneum after intraperitoneal injection; format: in vivo; details: 3 h, iE-DAP 30 μM, MDP 10 μM
Description: For peritoneal cell extraction, animals were euthanized and cells from peritoneal cavity were isolated by peritoneal lavage (58). Harvested cell suspensions were centrifuged at 300 g for 5 min at 4° C. and resuspended in FACS buffer.
as §1

[3] = system: psoriasis-like inflammation on mouse pinnae; assay: IMQ model of psoriasis-like dermatitis (ear thickness, H&E histology); format: in vivo
Description: Pinnae were harvested 3 h after DAP-muropeptide administration or 7 d after topical application of IMQ and fixed in PBS containing 10% formalin. Paraffin-embedded sections were cut at […], stained with H&E, and imaged by light microscopy.
The induction of psoriasis-like inflammation on mouse pinnae was done as previously described (60). In brief, mice were treated daily for up to 6 d with 5 mg 5% IMQ cream topically applied on one pinna, while the other pinnae were treated with a similar amount of Vaseline, as vehicle control. Ear thickness was measured daily using a digital caliper. The change in ear thickness over time was reported as the difference related to the first day of topical application. For the bacterial assisted psoriasis model, 5 mg 5% IMQ cream was topically applied on one pinna, while the contralateral pinna was treated with a similar amount of Vaseline for 3 days, and then 10^7 CFU of C. accolens, in 50% glycerol, was topically applied daily to both pinnae. Ear thickness was measured daily using a digital caliper. C. accolens, originally from ATCC, was provided by J. Kang and grown as described (61).

[4] = system: primary mouse keratinocytes; assay: lipid nanoparticle (NP) mediated iE-DAP/dye delivery into keratinocytes; format: cell-based; details: keratinocytes pretreated with 250 μM MTX, iE-DAP delivered by dye-loaded NP
Description: Briefly, a matrix of DOPC/DSPC/DOPG/cholesterol/DSPE-mPEG at 33.5/33.5/20/10/3 mol % was prepared in chloroform and dry lipid/cholesterol films were allowed to form. Films were rehydrated with iE-DAP (Invivogen) prepared in PBS at 1.2 mg/mL and these samples were vortexed for 30 sec every 10 min for 1 hr at 56° C. to complete this process. Following rehydration, samples were ultrasonicated in alternating 20 sec pulse/10 sec off cycles for 5 min at an amplitude of 20% to form iEDAP-encapsulated lipid-based NPs. Samples were dialyzed for 1 hr following ultrasonication. Dynamic light scattering (DLS) and zeta potential measurements using a Malvern Zetasizer were used to characterize NP size and surface charge, respectively. […] Quant-IT assay (Thermo Fisher Scientific) measurements were used to measure average iE-DAP encapsulation at 998.1 μg/mL and an average encapsulation efficiency of 57.1%. To visualize iE-DAP-encapsulated NPs, 0.1 mol % of the fluorescent lipid tracer dye 3,3′-dioctadecyloxacarbocyanine perchlorate (DiO) were added to the lipid/cholesterol films. Mouse keratinocytes were challenged iE-DAP loaded NPs, or control empty NPs, at 37° C. at 10 μg/ml final concentration (˜30 μM iE-DAP), and then monitored for Sytox uptake assay for 24 h, as described above. […]

[5] = target: T1, Slc46a2 (Mus musculus, UniProt Q8CA03); assay: click-muropeptide uptake into keratinocytes (CalFluor 488 Azide, confocal imaging and lysate fluorescence); format: cell-based; details: WT or Nod1−/− keratinocytes, 30 μM click-iE-DAP; MTX 250 μM or unlabeled iE-DAP 30 μM
T1 construct: primary mouse keratinocytes, which express Slc46a2 and Nod1; endogenous in cells; host or cells: primary mouse epidermal keratinocytes (WT or Nod1-/-; Slc46a2-/- cells served as the negative control)
T1 sequence (Q8CA03 1-479): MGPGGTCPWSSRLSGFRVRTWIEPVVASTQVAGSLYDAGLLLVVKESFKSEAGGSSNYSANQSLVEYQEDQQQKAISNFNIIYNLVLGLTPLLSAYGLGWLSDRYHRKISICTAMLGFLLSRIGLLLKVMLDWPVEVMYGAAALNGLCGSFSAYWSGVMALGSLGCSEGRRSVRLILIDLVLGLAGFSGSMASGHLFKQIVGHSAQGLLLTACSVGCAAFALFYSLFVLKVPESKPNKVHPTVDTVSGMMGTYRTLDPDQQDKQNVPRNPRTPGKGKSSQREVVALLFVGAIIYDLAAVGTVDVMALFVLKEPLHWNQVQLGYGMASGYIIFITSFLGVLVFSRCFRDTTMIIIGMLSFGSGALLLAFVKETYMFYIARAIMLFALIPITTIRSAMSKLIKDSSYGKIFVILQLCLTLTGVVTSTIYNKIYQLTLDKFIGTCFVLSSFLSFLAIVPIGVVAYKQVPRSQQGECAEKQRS
Description: For visualization, mouse keratinocytes were challenged with click-iE-DAP (30 μM) or click-MDP (20 μM) 37° C. for 30-60 min, cells washed 2× with 1×PBS to remove access of click-muropeptides and fixed with 4% paraformaldehyde in PBS at RT for 10 min. Cells were permeabilized with 1% Triton-X in PBS for 10 min at RT and blocked with 1% BSA in PBS. These permeabilized cells were then incubated in click-reaction conditions (250 μM CuSO4, 35 μM BTAA, 60 μM sodium ascorbate) with 2.5 μM CalFluor 488 Azide at RT for 30 mins. Cells were then washed and mounted on slides, with DAPI containing mounting media. Slides were imaged with a Leica SP8 confocal microscope.

[6] = system: primary mouse keratinocytes; assay: keratinocyte cell permeabilization assay (Sytox dye uptake, live cell imaging); format: cell-based; details: WT keratinocytes, 30 μM iE-DAP, 24 h; MTX increasing concentration, zVAD-fmk 10 μM, DMF 50 μM
Description: (§2) Adult (6-8 weeks) mouse keratinocytes were isolated from male or female animals using protocols described previously (57). In brief, tail skin was incubated in 1 mg/ml Dispase II (Roche) overnight at 4° C. The epidermis was physically removed from the dermis with tweezers following Dispase II treatment, subsequently digested with TrypLE (Thermo) for 20 min at room temperature, and keratinocytes were detached by vigorously shaking in EpiLife culture medium and filtered with a 70 μm strainer (Fisher scientific). Isolated cells were seeded at a density of 10^5 cells/cm^2 cultured with EpiLife (Gibco) in 12-well plates precoated with coating matrix (Gibco) and used between 3 and 5 days after isolation.
For cell permeabilization assays, 1×10^5 keratinocytes/well were seeded in a 96-well plate (Denville Scientific Inc.). After reaching 80% confluency, 30 μM iE-DAP was added to culture media with 1 nM Sytox red dye (Thermo) and 0.2 nM hoechst stain (Thermo). Plates were then cultured in a Cytation5 (BioTek) live imaging device and each well was imaged every 30 min for 24 hours. For analysis, Gen5 software were used to count the total number of Hoechst-stained nuclei and the total number of permeabilized cells were quantified as the number of Sytox positive nuclei. The Percentage of Sytox^+ cells was then calculated and plotted.

[7] = system: primary mouse keratinocytes; assay: cytokine ELISAs from primary keratinocyte culture media; format: cell-based
Description: as §2
For cytokine ELISAs, primary keratinocytes were either mock-treated or treated with 8 μM TCT or 30 μM iE-DAP for 24 h Culture medium was harvested and centrifuged at 500 g for 15 mins and analyzed using ELISA kits detecting CXCL1 (KC), IL-6, TNF-α, IL-1α and IL-1β (R&D systems) following the manufacturer's protocols. In brief, 96-well ELISA plates were coated with capture antibody overnight at room temperature. The next day, the plate was washed three times with wash buffer and incubated with harvested media (100 μl) for 2 h followed by three washes and then probed with biotin-labelled detection antibody for 2 h. After three washes with wash buffer, plates were incubated with HRP-streptavidin for 20 min at room temperature (RT), developed with TMB (3,3′,5,5″-tetramethylbenzidine) substrate for 20 min at RT, and then stopped with IN sulfuric acid. Plate was analyzed at 450 nm with wavelength correction at 540 nm.

[8] = system: HSE dermal fibroblasts (CXCL8); assay: CXCL8 induction in Human Skin Equivalents (HSE) skin organoids; format: cell-based; details: concomitant treatment with iE-DAP
[9] = system: primary dermal fibroblasts; assay: CXCL1 (KC) ELISA from primary dermal fibroblasts; format: cell-based, mouse; details: iE-DAP 30 μM or IL-1α 10 ng/ml, 24 hrs
Description: Mouse dermal fibroblasts were isolated as described herein. In brief, mouse pinnae were incubated on a table shaker (200 rpm) in a collagenase D-pronase solution [2.5 mg/ml collagenase-D (Sigma), 20 mg/ml pronase (Sigma) diluted in 1M Tris, pH 8.0 and containing 1 μM EDTA (Sigma)] for 90 min at 37° C. Fibroblasts were then isolated by pressing digested skin through a 70 μm cell strainer, and cells were collected and cultured in RPMI 1640 medium with 10% FBS, 50 μM 2-mercaptoethanol, 100 μM asparagine, 2 mM glutamine, 1% penicillin-streptomycin for 2-4 passages before stimulating with immune elicitors, and/or harvesting media or cells.
For cytokine ELISAs from dermal fibroblast, cells were challenged with IL-1α (10 ng/ml) or 30 μM iE-DAP for 24 h, and media was collected and processed for ELISA as described above.

[10] = intradermal, 3 h, TCT 8 μM, iE-DAP 30 μM, MDP 10 μM

**Q.** How did the “neutrophil recruitment response in Slc46a3−/− mice” value ([1]; intradermal, 3 h, MDP 10 μM) turn out when `CC(=O)N[C@H]1C(O)O[C@H](CO)[C@@H](O)[C@@H]1O[C@H](C)C(=O)N[C@@H](C)C(=O)N[C@H](CCC(=O)O)C(N)=O` (mixture of isomers) [MDP, muramyl dipeptide] was run?
**A.** significantly defective

**Q.** What about the “neutrophil recruitment response in Slc46a2-deficient mice compared to WT” value (shortened to “neutrophil recruitment response … compared to WT”) [1, 10] of the same molecule?
**A.** responded normally

**Q.** And the “neutrophil recruitment response in Slc46a2−/− mice” value [2]?
**A.** responded like wild-type

**Q.** What about the “neutrophil recruitment response in Slc46a3−/− mice” value [2] of the same molecule?
**A.** failing to respond

**Q.** How did the “neutrophil recruitment response … compared to WT” value [1, 10] turn out when `CCCCCCCCCCCC(=O)N[C@H](CCC(=O)NC(CCCC(N)C(=O)O)C(=O)O)C(=O)O` (stereo partly shown) [C12-iE-DAP] was run?
**A.** not significantly changed

**Q.** What does the source list for `CC(C)Cn1cnc2c(N)nc3ccccc3c21` [IMQ, imiquimod]?
**A.** inflammation in Slc46a2- and Nod1-deficient mice ([3]; 7-day course of topical IMQ): markedly resistant; inflammation in WT mice (ear thickness, H&E histology) ([3]; 7-day course of topical IMQ, WT mice): expected psoriatic-like inflammation

**Q.** For `CN(Cc1cnc2nc(N)nc(N)c2n1)c1ccc(C(=O)N[C@@H](CCC(=O)O)C(=O)O)cc1` [MTX, methotrexate], which “effect on NP-mediated iE-DAP / dye delivery” value [4] is on record?
**A.** failed to interfere; also recorded: did not affect

**Q.** What about the “effect on cytosolic accumulation / cellular uptake of click-iE-DAP” value [5] of the same molecule?
**A.** blocked; also recorded: interfered

**Q.** And the “inhibition of DAP-muropeptide triggered keratinocyte permeabilization (Sytox uptake)” value [6]?
**A.** inhibited

**Q.** What about the “IL-1α release in iE-DAP treated WT keratinocytes” value ([7]; 250 μM MTX along with 30 μM iE DAP, 24 hours) of the same molecule?
**A.** prevented

**Q.** What about the “inhibition of DAP-muropeptide triggered IL-1α release” value ([7]; keratinocytes, iE-DAP, increasing concentrations of MTX, dose dependent) of the same molecule?
**A.** inhibited

**Q.** What about the “residual inflammation in Slc46a2−/− and Nod1−/− skin” value ([3]; Slc46a2−/− and Nod1−/− mice, IMQ daily with topical 50 μl of 250 μM MTX) of the same molecule?
**A.** no observable effect; also recorded: minimalistic effect

**Q.** And the “psoriasis like inflammation in WT skin” value ([3]; WT mice, IMQ daily with topical 50 μl of 250 μM MTX)?
**A.** reduced; also recorded: less inflamed

**Q.** How did the “neutrophil recruitment response … compared to WT” value [1, 10] turn out when `C[C@H](N)C(=O)N[C@H](CCC(=O)NC(CCCC(N)C(=O)O)C(=O)O)C(=O)O` (stereo partly shown) [Tri-DAP] was run?
**A.** significantly reduced

**Q.** For `COC(=O)C[C@H](NC(=O)[C@H](C)NC(=O)[C@@H](NC(=O)OCc1ccccc1)C(C)C)C(=O)CF` [zVAD-FMK] (Cbz-Val-Ala-Asp(OMe)-CH2F), which “inhibition of DAP-muropeptide triggered keratinocyte permeabilization (Sytox uptake)” value [6] is on record?
**A.** prevented

**Q.** What does the source list for IL-1Ra: recombinant IL-1R antagonist?
**A.** effect on iE-DAP induced CXCL8 in HSE dermis [8]: prevented; effect on iE-DAP induced CXCL8 in HSE dermis ([8]; listed as IL-IRA): blocked

**Q.** How did the “neutrophil / leukocyte recruitment to the skin in WT mice” value ([1]; intradermal 10 μl, TCT 8 μM, LPS 10 μg/ml, iE-DAP 30 μM, 1 to 24 h) turn out when tracheal cytotoxin [TCT] was run?
**A.** rapid and robust; also recorded: robust and rapid

**Q.** What about the “time of peak leukocyte recruitment” value ([1]; intradermal TCT, monitored between 1 and 24 h) of the same molecule?
**A.** 3 h

**Q.** And the “neutrophil recruitment response … compared to WT” value [1, 10]?
**A.** significantly reduced

B1: IL-1α: cytokine used to challenge dermal fibroblasts (10 ng/ml) (protein, UniProt P01583 113-271, looked up)
Interleukin-1 alpha: SAPFSFLSNVKYNFMRIIKYEFILNDALNQSIIRANDQYLTAAALHNLDEAVKFDMGAYKSSKDDAKITVILRISKTQLYVTAQDEDQPVLLKEMPEIPKTITGSETNLLFFWETHGTKNYFTSVAHPNLFIATKQDYWVCLAGGPPSITDFQILENQA
**Q.** B1 was tested. Which “CXCL1 (KC) response of primary dermal fibroblasts” value [9] did it give?
**A.** induced

Reference: patent US20250161399A1, “TARGETING SLC46A2-MEDIATED MUROPEPTIDE TRANSPORT TO TREAT PSORIASIS” (University of Massachusetts, priority 2021, published 2025)
